Experimental data as given in US20030134859A1 (SANKYO COMPANY, LIMITED, priority 2000, published 2003).
Counter-ions that a name gives are not always drawn.

Tests used:
[1] = tested on: human colon cancer cells COL-2-JCK; test: Inhibition of colony forming activity in human colon cancer cells; format: cell-based; details: 1 μM test compound, 10 days, sum of colony areas vs control; for inhibition at 1 µM: Homo sapiens, 240 h, read-out: Inhibition Rate (%) against the colony forming activity
Procedure, shortened: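 COL-2-JCK cells seeded at 300 cells/well and grown 10 days at 37 °C, 5% CO2 with compound at 1 μM final (0.1% DMSO). Colonies stained with crystal violet in formalin; inhibition % = (1 − treated/control colony area)×100.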

human PPAR γ 2 = molecular target: T1, human PPAR γ 2 (Homo sapiens, UniProt P37231); test: Inhibitory activity against PPAR γ transcription in the presence of agonist compound A, luciferase reporter; format: cell-based; details: in the presence of 10 nM compound A (agonist); MG63 cells transfected with pSG5-hPPARg and pGV-P2-PPRE; 24 hr
T1 construct: expressed in transfected cells; host or cells: human osteosarcoma MG63, transiently co-transfected with pSG5-hPPARg and the reporter pGV-P2-PPRE
T1 sequence (P37231 1-505): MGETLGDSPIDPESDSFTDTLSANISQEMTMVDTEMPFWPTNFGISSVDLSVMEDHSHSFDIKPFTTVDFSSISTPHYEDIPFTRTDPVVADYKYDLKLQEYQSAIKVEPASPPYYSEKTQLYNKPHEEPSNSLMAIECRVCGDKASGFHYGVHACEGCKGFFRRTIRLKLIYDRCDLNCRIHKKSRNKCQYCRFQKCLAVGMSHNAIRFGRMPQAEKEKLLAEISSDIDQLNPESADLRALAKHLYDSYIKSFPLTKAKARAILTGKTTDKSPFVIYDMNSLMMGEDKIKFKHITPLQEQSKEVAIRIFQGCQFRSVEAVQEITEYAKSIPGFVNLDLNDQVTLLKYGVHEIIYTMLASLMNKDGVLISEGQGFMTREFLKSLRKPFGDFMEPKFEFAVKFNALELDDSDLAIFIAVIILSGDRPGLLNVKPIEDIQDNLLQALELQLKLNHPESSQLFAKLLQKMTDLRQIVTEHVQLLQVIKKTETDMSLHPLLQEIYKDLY

Compound	IC50 (human PPAR γ 2)	inhibition at 1 µM [1]	further results
O=C(Nc1ccc(-c2ccc([N+](=O)[O-])cc2)cc1)c1cc([N+](=O)[O-])ccc1Cl [Example 9, N-[4-(4-Nitrophenyl)phenyl)-(2-chloro-5-nitrophenyl)carboxamide]	–	29%	–
CCCc1ccc(NC(=O)c2cc([N+](=O)[O-])ccc2Cl)cc1 [Example 15, N-(4-Propylphenyl)-(2-chloro-5-nitrophenyl)carboxamide]	–	14%	–
Cc1ccc(S(=O)(=O)Nc2ccc(NC(=O)c3cc([N+](=O)[O-])ccc3Cl)cc2)cc1 [Example 32, N-[4-(4-Methylbenzene)sulfonylaminophenyl]-(2-chloro-5-nitrophenyl)carboxamide]	–	–	Inhibition Rate (%) against the colony forming activity [1]: 39.0%
O=C(Nc1nc2ccc([N+](=O)[O-])cc2s1)c1cc([N+](=O)[O-])ccc1Cl [Example 34, N-(6-Nitrobenzothiazol-2-yl)-(2-chloro-5-nitrophenyl)carboxamide]	–	41%	–
O=C(Nc1cnc2ccccc2c1)c1cc([N+](=O)[O-])ccc1Cl [Example 55, N-(3-Quinolinyl)-(2-chloro-5-nitrophenyl)carboxamide]	–	8%	–
O=C(Nc1nccc2ccccc12)c1cc([N+](=O)[O-])ccc1Cl [Example 59, N-(Isoquinolin-1-yl)-(2-chloro-5-nitrophenyl)carboxamide]	–	94%	–
O=C(Nc1nc2cc(Cl)ccc2o1)c1cc([N+](=O)[O-])ccc1Cl [Example 75, N-(5-Chlorobenzoxazol-2-yl)-(2-chloro-5-nitrophenyl)carboxamide]	–	65%	–
O=C(Nc1ncc(Br)cn1)c1cc([N+](=O)[O-])ccc1Cl [Example 77, N-(5-Bromopyrimidin-2-yl)-(2-chloro-5-nitrophenyl)carboxamide]	–	1%	–
Nc1ccc(-c2ccc(NC(=O)c3cc([N+](=O)[O-])ccc3Cl)cc2)cc1 [Example 88, N-[4-(4-Aminophenyl)phenyl]-(2-chloro-5-nitrophenyl)carboxamide mono-hydrochloride]	–	8%	–
O=C(Nc1ccc(Cl)nn1)c1cc([N+](=O)[O-])ccc1Cl [Example 89]	0.4 µM	–	–
Cc1c(C)c2c(c(C)c1O)C(=O)CC(C)(COc1ccc(NC(=O)c3cc([N+](=O)[O-])ccc3Cl)cc1)O2 (centres unmarked) [Example 92, N-[4-(6-Hydroxy-2,5,7,8-tetramethyl-4-oxochroman-2-ylmethoxy)phenyl]-(2-chloro-5-nitrophenyl)carboxamide]	–	15%	–
CS(=O)(=O)Nc1ccc(-c2ccc(NC(=O)c3cc([N+](=O)[O-])ccc3Cl)cc2)cc1 [Example 93, N-[4-[4-(Methanesulfonylamino)phenyl]phenyl]-(2-chloro-5-nitrophenyl)carboxamide]	–	44%	–
O=C(Nc1ccc(-c2ccc(NC(=O)c3cc([N+](=O)[O-])ccc3Cl)cc2)cc1)c1cccnc1 [Example 124, N-[4-[4-(Pyridin-3-ylcarbonylamino)phenyl]phenyl]-(2-chloro-5-nitrophenyl)carboxamide]	0.0081 µM	–	–
O=C(Nc1ccc(-c2ccc(NC(=O)c3cc([N+](=O)[O-])ccc3Cl)cc2)cc1)c1ccncc1 [Example 126, N-[4-[4-(Pyridin-4-ylcarbonylamino)phenyl]phenyl]-(2-chloro-5-nitrophenyl)carboxamide]	0.014 µM	–	–
O=C(Nc1ccc(NS(=O)(=O)c2ccccc2)cc1)c1cc([N+](=O)[O-])ccc1Cl [Example 127, N-(4-Benzenesulfonylaminophenyl)-(2-chloro-5-nitrophenyl)carboxamide]	0.011 µM	–	–
CC(C)(C)OC(=O)Nc1ccc(-c2csc(NC(=O)c3cc([N+](=O)[O-])ccc3Cl)n2)cc1 [Example 190, N-[4-(4-tert-Butoxycarbonylaminophenyl)thiazol-2-yl]-(2-chloro-5-nitrophenyl)carboxamide]	0.036 µM	–	–
N-[3-(Pyrrolidinylsulfonyl)phenyl]-(2-chloro-5-nitrophenyl)carboxamide [Example 154]	0.081 µM	–	–
N-[4-(4-Methylbenzoylamino)phenyl]phenyl]-(2-chloro-5-nitrophenyl)carboxamide [Example 122]	0.0076 µM	–	–
N-[4-(Benzenesulfonylaminophenyl)phenyl]-(2-chloro-5-nitrophenyl)carboxamide [Example 128]	0.035 µM	–	–
N-[4-[4-(Pyrrolidin-1-ylamino)phenyl]phenyl]-(2-chloro-5-nitrophenyl)carboxamide [Example 171]	0.048 µM	–	–

The next lines start with results.

IC50 (human PPAR γ 2)	Compound	inhibition at 1 µM [1]	further results
0.011 µM	CCS(=O)(=O)Nc1ccc(-c2ccc(NC(=O)c3cc([N+](=O)[O-])ccc3Cl)cc2)cc1 [Example 130, N-[4-(4-Ethanesulfonylaminophenyl)phenyl]-(2-chloro-5-nitrophenyl)carboxamide]	–	–
0.11 µM	O=C(Nc1cnccn1)c1cc([N+](=O)[O-])ccc1Cl [Example 140, N-(Pyrazin-2-yl)-(2-chloro-5-nitrophenyl)carboxamide]	–	–
0.012 µM	O=C(Nc1ccc(S(=O)(=O)N2CCCCC2)cc1)c1cc([N+](=O)[O-])ccc1Cl [Example 151, N-[4-(Piperidyisulfonyl)phenyl]-(2-chloro-5-nitrophenyl)carboxamide]	–	–
0.049 µM	O=C(Nc1ccc(S(=O)(=O)N2CCOCC2)cc1)c1cc([N+](=O)[O-])ccc1Cl [Example 153, N-[4-(Morpholin-4-ylsulfonyl)phenyl]-(2-chloro-5-nitrophenyl)carboxamide]	–	–
0.0098 µM	CC(=O)c1ccc(NC(=O)c2cc([N+](=O)[O-])ccc2Cl)cc1 [Example 155, N-(4-Acetylphenyl)-(2-chloro-5-nitrophenyl)carboxamide]	–	–
0.1 µM	CC(=O)c1cccc(NC(=O)c2cc([N+](=O)[O-])ccc2Cl)c1 [Example 156, N-(3-Acetylphenyl)-(2-chloro-5-nitrophenyl)carboxamide]	–	–
0.011 µM	O=C(Nc1ccc(C(=O)N2CCCCC2)cc1)c1cc([N+](=O)[O-])ccc1Cl [Example 159, N-[4-(Piperidylcarbonyl)phenyl]-(2-chloro-5-nitrophenyl)carboxamide]	–	–
0.0094 µM	O=C(Nc1ccc(-n2ccnc2)cc1)c1cc([N+](=O)[O-])ccc1Cl [Example 174, N-[4-(Imidazol-1-yl)phenyl]-(2-chloro-5-nitrophenyl)carboxamide]	–	–
0.099 µM	CC(C)(C)c1cc(NS(=O)(=O)c2ccc(NC(=O)c3cc([N+](=O)[O-])ccc3Cl)cc2)cc(C(C)(C)C)c1O [Example 175, N-[4-[(3,5-di-tert-Butyl-4-hydroxyphenyl)aminosulfonyl]phenyl]-(2-chloro-5-nitrophenyl)carboxamide]	–	–
0.094 µM	O=C(Nc1ccc(-c2ccc(N3CCCCC3)cc2)cc1)c1cc([N+](=O)[O-])ccc1Cl [Example 177, N-[4-[4-(Piperidin-1-yl)phenyl]phenyl]-(2-chloro-5-nitrophenyl)carboxamide]	–	–
0.033 µM	CCCCCCN(CC)c1ccc(NC(=O)c2cc([N+](=O)[O-])ccc2Cl)cc1 [Example 188, N-[4-(N-Ethyl-N-hexylamino)phenyl]-(2-chloro-55 nitrophenyl)carboxamide]	–	–
0.33 µM	CCCN(CCC)c1ccc(-c2ccc(NC(=O)c3cc([N+](=O)[O-])ccc3Cl)cc2)cc1 [Example 194, N-[4-[4-(N,N-Dipropylamino)phenyl]phenyl]-(2-chloro-5-nitrophenyl)carboxamide]	–	–
